Experimental findings from the supplement of paper PMC11208160 are described below.

The data set in a line: recombinant barcode read abundance after kanamycin selection (control-corrected) (log10(CPM+1)); higher = more efficient recombination; sequences stand for … in AGTGCAGAGAAAATCGGCCAGTTTTCTCTGCCTGCAGTCCGCATGCCGT…AGATTTATGCAGCGGACTGCCTTTCTCCCAAAGTGATAAACCGGACAGTATCATGGACCGGTTTTCCCGGTAATCCGTATTTGCAAGGTTGGTTTCACT; site = the 11-nt target. In outline: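 Duplicate cultures were plated either on chloramphenicol/ampicillin LB agar, serving as control, or on chloramphenicol/ampicillin/kanamycin with 0.1 mM IPTG. These came from a pooled E. coli library co-electroporated with a donor plasmid, each member pairing a target with an IS621 bridge RNA target-binding loop. Recombination efficiency equals averaged, control-corrected counts per million of recombinant-junction barcodes. It is listed as log10(CPM+1).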
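Note: IS621 recombinase and bridge RNA in Escherichia coli cells.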

Turning to “TATGTAGCTTGGGTTCTAACCTGTTGCCG (site TATGTAGCTTG)”, the “recombinant barcode read abundance (log10)” value came to 0.0858.

In the case of “TATGTAGCTTGGGTTCTAACCTGTTGCCT (site TATGTAGCTAG)”, the “recombinant barcode read abundance (log10)” value turned out to be 0.677.

“TATGTAGCTTGGGTTCTAACCTGTTGCCT (site TATGTAGCTCG)”: the “recombinant barcode read abundance (log10)” value was determined as 0.353.

Turning to “TATGTAGCTTGGGTTCTAACCTGTTGCCT (site TATGTAGCTGG)”, the “recombinant barcode read abundance (log10)” value was found to be 0.103.

Consider “TATGTAGCTTGGGTTCTAACCTGTTGCCT (site TATGTAGCTTG)”, for which the “recombinant barcode read abundance (log10)” value came to 0.129.

Regarding “TATTAACCTTGGGTTCTAACCTGTTGCCT (site TATTAACCTAG)”, the “recombinant barcode read abundance (log10)” value was 0.329.

Regarding “TATTAACCTTGGGTTCTAACCTGTTGCCT (site TATTACCCTAG)”, the “recombinant barcode read abundance (log10)” value stood at 0.117.

As for “TATTAACCTTGGGTTCTAACCTGTTGCCT (site TATTAGCCTAG)”, the “recombinant barcode read abundance (log10)” value was 0.0897.

As for “TATTAACCTTGGGTTCTAACCTGTTGCCT (site TATTATCCTAG)”, the “recombinant barcode read abundance (log10)” value is 0.0539.

With “TATTAGCCTTGGGTTCTAACCTGTTGCCT (site TATTAACCTAG)”, the “recombinant barcode read abundance (log10)” value was determined as 0.138.

Regarding “TATTAGCCTTGGGTTCTAACCTGTTGCCT (site TATTACCCTAG)”, the “recombinant barcode read abundance (log10)” value was determined as 0.283.

As to “TATTAGCCTTGGGTTCTAACCTGTTGCCT (site TATTAGCCTAG)”, the “recombinant barcode read abundance (log10)” value was found to be 0.123.

With “TATTAGCCTTGGGTTCTAACCTGTTGCCT (site TATTATCCTAG)”, the “recombinant barcode read abundance (log10)” value worked out at 0.27.

In the case of “TATTATCCTTGGGTTCTAACCTGTTGCCT (site TATTAACCTAG)”, the “recombinant barcode read abundance (log10)” value came to 0.341.

Regarding “TATTATCCTTGGGTTCTAACCTGTTGCCT (site TATTACCCTAG)”, the “recombinant barcode read abundance (log10)” value is 0.0929.

Take “TATTATCCTTGGGTTCTAACCTGTTGCCT (site TATTAGCCTAG)”: the “recombinant barcode read abundance (log10)” value turned out to be 0.121.

For “TATTATCCTTGGGTTCTAACCTGTTGCCT (site TATTATCCTAG)”, the “recombinant barcode read abundance (log10)” value amounted to 0.0487.

For “TATTCTACTTGGGTTCTAACCTGTTGCGA (site TATTCTACTAC)”, the “recombinant barcode read abundance (log10)” value is 0.0359.

As to “TATTCTACTTGGGTTCTAACCTGTTGCGA (site TATTCTACTCC)”, the “recombinant barcode read abundance (log10)” value was 0.0347.

Consider “TATTCTACTTGGGTTCTAACCTGTTGCGA (site TATTCTACTGC)”, for which the “recombinant barcode read abundance (log10)” value worked out at 0.165.

Regarding “TATTCTACTTGGGTTCTAACCTGTTGCGA (site TATTCTACTTC)”, the “recombinant barcode read abundance (log10)” value was 0.0707.

On to “TATTCTCCTTGGGTTCTAACCTGTTGCAT (site TATTCTCCTAA)”, for which the “recombinant barcode read abundance (log10)” value was 0.0409.

Regarding “TATTCTCCTTGGGTTCTAACCTGTTGCAT (site TATTCTCCTAC)”, the “recombinant barcode read abundance (log10)” value was 0.235.

With “TATTCTCCTTGGGTTCTAACCTGTTGCAT (site TATTCTCCTAG)”, the “recombinant barcode read abundance (log10)” value is 0.00827.

Take “TATTCTCCTTGGGTTCTAACCTGTTGCAT (site TATTCTCCTAT)”: the “recombinant barcode read abundance (log10)” value is 0.186.

Consider “TATTGGACTTGGGTTCTAACCTGTTGCAA (site TATTGGACTAT)”, for which the “recombinant barcode read abundance (log10)” value was 0.218.

“TATTGGACTTGGGTTCTAACCTGTTGCAA (site TATTGGACTCT)”: the “recombinant barcode read abundance (log10)” value was 0.017.

As for “TATTGGACTTGGGTTCTAACCTGTTGCAA (site TATTGGACTGT)”, the “recombinant barcode read abundance (log10)” value stood at 0.0217.

Consider “TATTGGACTTGGGTTCTAACCTGTTGCAA (site TATTGGACTTT)”, for which the “recombinant barcode read abundance (log10)” value amounted to 0.303.

For the sequence “TATTGTCCTTGGGTTCTAACCTGTTGCCT (site TATAGTACTAG)”, the “recombinant barcode read abundance (log10)” value amounted to 0.0216.

Consider “TATTGTCCTTGGGTTCTAACCTGTTGCCT (site TATTGTCCTAG)”, for which the “recombinant barcode read abundance (log10)” value is 0.124.

For the sequence “TATTTGTCTTGGGTTCTAACCTGTTGCTA (site TAGTCGTCTTA)”, the “recombinant barcode read abundance (log10)” value turned out to be 0.148.

As to “TATTTGTCTTGGGTTCTAACCTGTTGCTA (site TATTTGTCTTA)”, the “recombinant barcode read abundance (log10)” value came out at 0.486.

Turning to “TCAAAGGCTTGGGTTCTAACCTGTTGCCT (site TCAAAGGCTAG)”, the “recombinant barcode read abundance (log10)” value came to 0.0805.

Consider “TCAAAGGCTTGGGTTCTAACCTGTTGCCT (site TCCAAGGCTAG)”, for which the “recombinant barcode read abundance (log10)” value came out at 0.238.

For “TCAAAGGCTTGGGTTCTAACCTGTTGCCT (site TCGAAGGCTAG)”, the “recombinant barcode read abundance (log10)” value is 0.13.

Turning to “TCAAAGGCTTGGGTTCTAACCTGTTGCCT (site TCTAAGGCTAG)”, the “recombinant barcode read abundance (log10)” value is 0.0999.

In the case of “TCAAATTCTTGGGTTCTAACCTGTTGCCT (site TCAAATTCTAG)”, the “recombinant barcode read abundance (log10)” value was 0.0401.

On to “TCAAATTCTTGGGTTCTAACCTGTTGCCT (site TCACATTCTAG)”, for which the “recombinant barcode read abundance (log10)” value was determined as 0.0721.

Turning to “TCAAATTCTTGGGTTCTAACCTGTTGCCT (site TCAGATTCTAG)”, the “recombinant barcode read abundance (log10)” value came to 0.108.

“TCAAATTCTTGGGTTCTAACCTGTTGCCT (site TCATATTCTAG)”: the “recombinant barcode read abundance (log10)” value is 0.0151.

Turning to “TCACAGACTTGGGTTCTAACCTGTTGCCG (site GTTAGCCCTAT)”, the “recombinant barcode read abundance (log10)” value stood at 0.11.

For “TCACAGACTTGGGTTCTAACCTGTTGCCG (site TCACAGACTCG)”, the “recombinant barcode read abundance (log10)” value was 1.2.

For “TCACGGTCTTGGGTTCTAACCTGTTGCCT (site TCACGGTCTAG)”, the “recombinant barcode read abundance (log10)” value came to 0.598.

In the case of “TCACGGTCTTGGGTTCTAACCTGTTGCCT (site TCTCGGTCTAG)”, the “recombinant barcode read abundance (log10)” value is 0.0701.

On to “TCACGTCCTTGGGTTCTAACCTGTTGCAT (site TCACGTCCTAA)”, for which the “recombinant barcode read abundance (log10)” value came to 0.0411.

In the case of “TCACGTCCTTGGGTTCTAACCTGTTGCAT (site TCACGTCCTAC)”, the “recombinant barcode read abundance (log10)” value turned out to be 0.187.

With “TCACGTCCTTGGGTTCTAACCTGTTGCAT (site TCACGTCCTAG)”, the “recombinant barcode read abundance (log10)” value amounted to 0.745.

Take “TCACGTCCTTGGGTTCTAACCTGTTGCAT (site TCACGTCCTAT)”: the “recombinant barcode read abundance (log10)” value came to 0.576.

In the case of “TCACGTCCTTGGGTTCTAACCTGTTGCCT (site TCACGTCCTAA)”, the “recombinant barcode read abundance (log10)” value was 0.403.

Consider “TCACGTCCTTGGGTTCTAACCTGTTGCCT (site TCACGTCCTAC)”, for which the “recombinant barcode read abundance (log10)” value was 0.0778.

Take “TCACGTCCTTGGGTTCTAACCTGTTGCCT (site TCACGTCCTAG)”: the “recombinant barcode read abundance (log10)” value is 0.456.

On to “TCACGTCCTTGGGTTCTAACCTGTTGCCT (site TCACGTCCTAT)”, for which the “recombinant barcode read abundance (log10)” value was 0.144.

Consider “TCACTAGCTTGGGTTCTAACCTGTTGCCT (site TCACTAGCTAG)”, for which the “recombinant barcode read abundance (log10)” value is 0.0596.

In the case of “TCACTAGCTTGGGTTCTAACCTGTTGCCT (site TTACGAGCTAG)”, the “recombinant barcode read abundance (log10)” value worked out at 0.

Take “TCAGACCCTTGGGTTCTAACCTGTTGCCT (site TAAGACCCTAG)”: the “recombinant barcode read abundance (log10)” value is 0.417.

As to “TCAGACCCTTGGGTTCTAACCTGTTGCCT (site TCAGACCCTAG)”, the “recombinant barcode read abundance (log10)” value was determined as 2.31.

Turning to “TCAGAGGCTTGGGTTCTAACCTGTTGCTG (site TCAGAGGCTCA)”, the “recombinant barcode read abundance (log10)” value turned out to be 0.623.

Consider “TCAGAGGCTTGGGTTCTAACCTGTTGCTG (site TCCGAGGCTCA)”, for which the “recombinant barcode read abundance (log10)” value was found to be 0.118.

“TCAGAGGCTTGGGTTCTAACCTGTTGCTG (site TCGGAGGCTCA)”: the “recombinant barcode read abundance (log10)” value was 0.0529.

Turning to “TCAGAGGCTTGGGTTCTAACCTGTTGCTG (site TCTGAGGCTCA)”, the “recombinant barcode read abundance (log10)” value amounted to 0.156.

Take “TCAGATTCTTGGGTTCTAACCTGTTGCCT (site TCAAATTCTAG)”: the “recombinant barcode read abundance (log10)” value is 0.0231.

With “TCAGATTCTTGGGTTCTAACCTGTTGCCT (site TCACATTCTAG)”, the “recombinant barcode read abundance (log10)” value amounted to 0.0298.

As to “TCAGATTCTTGGGTTCTAACCTGTTGCCT (site TCAGATTCTAG)”, the “recombinant barcode read abundance (log10)” value turned out to be 0.78.

In the case of “TCAGATTCTTGGGTTCTAACCTGTTGCCT (site TCATATTCTAG)”, the “recombinant barcode read abundance (log10)” value was 0.114.

On to “TCAGGAGCTTGGGTTCTAACCTGTTGCGG (site TCAGGAGCTCC)”, for which the “recombinant barcode read abundance (log10)” value is 2.07.

Consider “TCAGGAGCTTGGGTTCTAACCTGTTGCGG (site TCAGGAGCTCT)”, for which the “recombinant barcode read abundance (log10)” value was determined as 1.85.

Consider “TCAGGCCCTTGGGTTCTAACCTGTTGCCT (site TAAGGCCCTAA)”, for which the “recombinant barcode read abundance (log10)” value is 0.0837.

As for “TCAGGCCCTTGGGTTCTAACCTGTTGCCT (site TCAGGCCCTAG)”, the “recombinant barcode read abundance (log10)” value is 0.702.

In the case of “TCATGACCTTGGGTTCTAACCTGTTGCAT (site CTTAACACTCG)”, the “recombinant barcode read abundance (log10)” value is 0.159.

As for “TCATGACCTTGGGTTCTAACCTGTTGCAT (site TCATGACCTAT)”, the “recombinant barcode read abundance (log10)” value was 1.29.

Take “TCCAACACTTGGGTTCTAACCTGTTGCCG (site TCCAACACTCG)”: the “recombinant barcode read abundance (log10)” value is 0.574.

Consider “TCCAACACTTGGGTTCTAACCTGTTGCCG (site TCCAATACTCG)”, for which the “recombinant barcode read abundance (log10)” value turned out to be 0.24.

Consider “TCCAACCCTTGGGTTCTAACCTGTTGCCA (site GCCAACCCTTA)”, for which the “recombinant barcode read abundance (log10)” value stood at 0.0929.

In the case of “TCCAACCCTTGGGTTCTAACCTGTTGCCA (site TCCAACCCTTG)”, the “recombinant barcode read abundance (log10)” value is 0.715.

Regarding “TCCAAGGCTTGGGTTCTAACCTGTTGCCT (site TCAAAGGCTAG)”, the “recombinant barcode read abundance (log10)” value came out at 0.0841.

For “TCCAAGGCTTGGGTTCTAACCTGTTGCCT (site TCCAAGGCTAG)”, the “recombinant barcode read abundance (log10)” value was 0.107.
